Experimental data taken from paper PMC9721424, “Novel N-methylsulfonyl-indole derivatives: biological activity and COX-2/5-LOX inhibitory effect with improved gastro protective profile and reduced cardio vascular risks” (Journal of Enzyme Inhibition and Medicinal Chemistry, 2022).
Values joined by “and” are separate entries in the source; they are usually repeats but may differ in a detail not shown here. Identical values can stand only once. Like-named read-outs stand apart in the source and are kept apart here.

Tests used:
5-LOX enzyme = biological target: T1, 5-LOX enzyme (Homo sapiens, UniProt P09917); experiment: 5-LOX inhibition, Human Lipoxygenase Inhibitor Screening Assay (EIA) kit; type: biochemical
T1 construct: purchased Cayman Chemical K980-100
T1 sequence (P09917 1-674): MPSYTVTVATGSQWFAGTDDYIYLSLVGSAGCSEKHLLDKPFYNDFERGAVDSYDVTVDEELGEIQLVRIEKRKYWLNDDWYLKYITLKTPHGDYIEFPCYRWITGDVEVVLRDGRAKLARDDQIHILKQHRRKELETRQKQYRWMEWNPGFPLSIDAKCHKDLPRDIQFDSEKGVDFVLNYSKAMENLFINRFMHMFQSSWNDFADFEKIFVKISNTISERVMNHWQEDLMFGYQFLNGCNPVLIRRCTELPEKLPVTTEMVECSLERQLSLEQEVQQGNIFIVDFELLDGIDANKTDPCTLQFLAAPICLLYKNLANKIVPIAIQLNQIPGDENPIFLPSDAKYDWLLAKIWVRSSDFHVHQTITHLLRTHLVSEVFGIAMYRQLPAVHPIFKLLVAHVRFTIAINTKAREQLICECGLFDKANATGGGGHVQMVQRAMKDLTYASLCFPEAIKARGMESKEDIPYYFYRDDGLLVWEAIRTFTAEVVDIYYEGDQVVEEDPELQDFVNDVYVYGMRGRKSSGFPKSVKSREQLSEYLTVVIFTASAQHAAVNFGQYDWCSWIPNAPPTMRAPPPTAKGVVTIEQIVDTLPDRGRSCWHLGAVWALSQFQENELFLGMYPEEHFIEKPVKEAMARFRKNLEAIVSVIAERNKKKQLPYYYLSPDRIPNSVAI
Method: The ability of the test compounds to inhibit the 5-LOX enzyme (IC50 value, μM) was detected using the Cayman Human Lipoxygenase Inhibitor Screening Assay (EIA) kit (catalog no. K980-100, Cayman Chemical). The IC50 values of test compounds were measured in µM according to the manufacturer’s instructions and reported method.

DPPH free radical assay = type: biochemical; conditions: 540 nm, relative to Trolox; for DPPH test results (µM trolox equivalent/ 1mg sample ± SD): 30 min; for DPPH anti-oxidant activity: values in text
Method: Preparation of samples was occurred at the following concentrations: Samples 3a, 4a, 5b, 5d and 5e at final concentrations of 0.5 mg/ml in methanol: DMSO 9:1 v/v. Samples 4b and 4d at final concentrations 0.025 mg/ml in methanol: DMSO 9:1 v/v, sample 5a at final concentrations 0.25 mg/ml in methanol: DMSO 9:1 v/v, Sample 4c, 5c and 4e at final concentrations 0.05 mg/ml in methanol: DMSO 9:1 v/v, sample 3b at final concentration 0.75 mg/ml methanol: DMSO 9:1 v/v. A stock solution of 100 µM concentration of Trolox, a standard used in this experiment, was prepared in methanol from which seven concentrations were prepared, including 50, 40, 30, 20, 15, 10 and 5 µM.
The DPPH (2,2-diphenyl-1-picryl-hydrazyl-hydrate) free radical assay was carried out according to the method of Boly et al. 2016[39]. Briefly, freshly prepared DPPH reagent (100 µl, 0.1% in methanol) was added to 100 µl of the sample on 96 well plates (n = 6). The reaction was incubated at room temp for 30 min in the dark. After completion of the incubation time, the reduction in DPPH colour intensity was measured at 540 nm. Data obtained was represented as means ± SD, according to the following equation, percentage inhibition = [(Average absorbance of blank – average absorbance of the test)/(Average absorbance of blank)] *100. The results were recorded using a microplate reader, FluoStar Omega.
Microsoft Excel® was used to analyse the obtained results. The IC50 values were calculated using Graph pad Prism 6® by converting the concentrations to their logarithmic value and selecting the non-linear inhibitor regression equation (log (inhibitor) vs. normalised response – variable slope equation). The methods used and the final test report (R-SO7320) were obtained from Nawah Scientific.

COX-2 = biological target: T2, COX-2 (Ovis aries, UniProt P79208); experiment: COX-2 inhibition, enzyme immune assay (EIA) kit; type: biochemical, ovine; conditions: for S.I (IC50 COX-1/IC50 COX-2): COX-2 selectivity index; for SI: lab report, COX1/COX2
T2 sequence (P79208 17-603): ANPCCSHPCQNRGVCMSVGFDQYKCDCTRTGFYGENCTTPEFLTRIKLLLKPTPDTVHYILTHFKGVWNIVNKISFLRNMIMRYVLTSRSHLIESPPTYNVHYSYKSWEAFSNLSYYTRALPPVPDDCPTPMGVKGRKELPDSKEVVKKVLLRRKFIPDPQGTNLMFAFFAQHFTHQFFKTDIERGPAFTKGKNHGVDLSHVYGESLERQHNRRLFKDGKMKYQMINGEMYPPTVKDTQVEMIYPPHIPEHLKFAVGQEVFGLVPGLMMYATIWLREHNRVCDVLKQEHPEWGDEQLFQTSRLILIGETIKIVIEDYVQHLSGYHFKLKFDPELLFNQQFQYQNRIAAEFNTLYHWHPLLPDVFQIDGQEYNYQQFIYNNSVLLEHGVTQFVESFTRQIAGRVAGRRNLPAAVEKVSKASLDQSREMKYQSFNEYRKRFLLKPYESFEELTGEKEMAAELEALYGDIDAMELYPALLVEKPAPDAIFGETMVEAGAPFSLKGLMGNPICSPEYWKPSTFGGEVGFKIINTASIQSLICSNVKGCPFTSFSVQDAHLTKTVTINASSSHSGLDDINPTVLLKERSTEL

ovine COX-1 = biological target: T3, ovine COX-1 (Ovis aries, UniProt P05979); experiment: COX-1 inhibition, enzyme immune assay (EIA) kit
T3 sequence (P05979 25-600): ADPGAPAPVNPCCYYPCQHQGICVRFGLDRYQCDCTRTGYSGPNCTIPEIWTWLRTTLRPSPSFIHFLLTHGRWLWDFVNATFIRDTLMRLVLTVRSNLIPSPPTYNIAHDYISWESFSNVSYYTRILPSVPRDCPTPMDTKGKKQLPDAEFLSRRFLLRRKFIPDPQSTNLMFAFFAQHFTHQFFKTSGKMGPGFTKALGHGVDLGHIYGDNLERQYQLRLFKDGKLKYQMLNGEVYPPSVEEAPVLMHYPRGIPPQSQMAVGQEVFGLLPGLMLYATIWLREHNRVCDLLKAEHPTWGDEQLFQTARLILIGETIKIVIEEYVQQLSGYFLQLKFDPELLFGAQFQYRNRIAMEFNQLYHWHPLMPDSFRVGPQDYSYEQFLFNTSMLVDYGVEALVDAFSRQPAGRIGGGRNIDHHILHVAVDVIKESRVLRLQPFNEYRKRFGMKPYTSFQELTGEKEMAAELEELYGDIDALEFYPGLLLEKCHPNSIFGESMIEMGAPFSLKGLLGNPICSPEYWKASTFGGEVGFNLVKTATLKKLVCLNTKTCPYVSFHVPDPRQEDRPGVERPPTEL
Excerpt: Colorimetric enzyme immunoassay (EIA) kits were done to screen for the isozyme-specific inhibition.

[1] = test system: TNF-α in RAW264.7 macrophage cells; experiment: In vitro measurement of TNF-α in RAW264.7 macrophage cells (RT-qPCR); type: cell-based
Excerpt: Both Lipopolysaccharides (LPS) and hispidin were purchased from Sigma (Sigma-Aldrich, St. Louis, MO, USA)[40]. The foetal bovine serum (FBS) and Dulbecco’s modified Eagle’s medium (DMEM) were purchased from Hyclone (General Electric Healthcare Life Sciences, Mississauga, Canada), penicillin streptomycin (P/S) was purchased from Solarbio (Solarbio life sciences, Beijing, P. R. China). Results of all in vitro anti-inflammatory screening were obtained from the confirmatory diagnostic unit, VACSERA, Egypt.
DMEM was used to cultivate the macrophage cells RAW264.7 (Shanghai BOGO Industrial Co., Ltd., Shanghai, China), and supplemented with 10% FBS and 1% P/S (100 U/ml and […], respectively). […] They were treated with various concentrations of hispidin, then with 1 μg/ml LPS for the indicated time.
PBS (1 ml/well) was used to wash the cells in 24-well plates. […] For the experiments, CL Buffer included MgCl2 (M1028; Sigma) or RNasin Plus RNase Inhibitor (N2615; Promega). Before use, both Bio-Rad SPR and CL buffer were equilibrated to room temperature. […] Carefully, the resulting lysates were collected and either analysed immediately or stored frozen ([…]).
RT-qPCR analysis was performed in one-step SYBR Green RT-qPCR. […] A CFX96 real-time PCR instrument (Bio-Rad) was used under the following protocol: 50uC for 10 min, 95uC for 5 min, 95uC for 10 s/61uC for 15 s/72uC for 30 s.
Total RNA purified from cells was used as an RT-qPCR quantification standard.

IC50 (5-LOX enzyme) [µM] | 5-LOX %inh (5-LOX enzyme; conc 0.1 (μM)) [%] | 5-LOX %inh (5-LOX enzyme; conc 1 (μM)) [%] | 5-LOX %inh (5-LOX enzyme; conc 10 (μM)) [%] | 5-LOX %inh (5-LOX enzyme; conc 100 (μM)) [%] | S.I (IC50 COX-1/IC50 COX-2) (COX-2) | SI (COX-2) | IC50 (ovine COX-1; IC50 COX-1) [µM] | COX1 %inh (ovine COX-1; conc 0.1 (μM)) [%] | COX1 %inh (ovine COX-1; conc 1 (μM)) [%] | COX1 %inh (ovine COX-1; conc 10 (μM)) [%] | COX1 %inh (ovine COX-1; conc 100 (μM)) [%] | melting point [°C] | IC50 (5-LOX enzyme; lab report) [µM] | IC50 (ovine COX-1; read-out: IC50 COX-1) [µM] | SMILES | DPPH test results (µM trolox equivalent/ 1mg sample ± SD) (DPPH free radical assay) | DPPH anti-oxidant activity (DPPH free radical assay) | TNF-α fold change [1]
48.8 ± 2.58 | 2.63 | 5.83 | 18.6 | 70.3 | 0.78 | 0.779 | 21.1 ± 0.6 | 4.87 | 12.4 | 37.8 | 71 | 238 to 240 |  |  | CS(=O)(=O)n1cc(/C=N/NC(N)=O)c2ccccc21 [Compound 3a, (E)-2{[1-(methylsulfonyl)-1H-indol-3yl]methylene}hydrazinecarboxamide] | 5.91 ± 1.87 µM trolox equivalent/ 1mg sample |  | 
2.31 ± 0.12 | 11.4 | 43.6 | 69 | 90.3 | 2.80 | 2.799 | 11.3 ± 0.32 | 7.54 | 18.6 | 44 | 77.6 | 178 to 180 | 2.31 ± 0.12 |  | CS(=O)(=O)n1cc(/C=N/NC(N)=S)c2ccccc21 [Compound 4a, (E)-2{[1-(methylsulfonyl)-1H-indol-3yl]methylene}-hydrazine-1-carbothioamide] | 24.55 ± 1.61 µM trolox equivalent/ 1mg sample |  | 
4.03 ± 0.21 | 12.1 | 37.1 | 57.1 | 83.8 | 3.12 | 3.116 | 5.01 ± 0.14 | 11 | 24.7 | 60.6 | 83.5 | 220 to 222 | 4.03 ± 0.21 |  | CS(=O)(=O)n1cc(/C=N/NC(=S)Nc2ccccc2)c2ccccc21 [Compound 4c, (E)-2{[1-(methylsulfonyl)-1H-indol-3yl]methylene}-N-phenylhydrazinecarbothioamide] | 263.29 ± 12.30 µM trolox equivalent/ 1mg sample | about 263.29 µM Trolox equivalent/mg | 
79.4 ± 4.2 | 2.32 | 5.84 | 13 | 66.7 | 3.63 | 3.628 |  | 4.55 | 10.5 | 27.9 | 72.1 | 260 to 262 |  | 29.2 ± 0.83 | CS(=O)(=O)n1cc(/C=N/N=C2\SC(=O)CN2c2ccccc2)c2ccccc21 [Compound 5c] | 707.52 ± 49.91 µM trolox equivalent/ 1mg sample | 707.52 µM Trolox equivalent/mg and 707.5 µM Trolox equivalent/mg | 
6.65 ± 0.35 | 11.6 | 24.1 | 53 | 80.8 | 9.72 and 9.73 | 9.726 |  | 3.76 | 13.1 | 20 | 68.5 | 273 to 275 | 6.65 ± 0.35 | 47.5 ± 1.35 | COc1ccc(N2CC(=O)S/C2=N\N=C\c2cn(S(C)(=O)=O)c3ccccc23)cc1 [Compound 5e] | 13.22 ± 1.89 µM trolox equivalent/ 1mg sample |  | 
 |  |  | 77.1 | 92.8 |  |  |  |  |  |  |  |  |  |  | CC(c1cc2ccccc2s1)N(O)C(N)=O (stereo not shown) [Zileuton, reference compound] |  |  | 

SMILES | IC50 (5-LOX enzyme) [µM] | 5-LOX %inh (5-LOX enzyme; conc 0.1 (μM)) [%] | 5-LOX %inh (5-LOX enzyme; conc 1 (μM)) [%] | 5-LOX %inh (5-LOX enzyme; conc 10 (μM)) [%] | 5-LOX %inh (5-LOX enzyme; conc 100 (μM)) [%] | S.I (IC50 COX-1/IC50 COX-2) (COX-2) | SI (COX-2) | IC50 (ovine COX-1; IC50 COX-1) [µM] | COX1 %inh (ovine COX-1; conc 0.1 (μM)) [%] | COX1 %inh (ovine COX-1; conc 1 (μM)) [%] | COX1 %inh (ovine COX-1; conc 10 (μM)) [%] | COX1 %inh (ovine COX-1; conc 100 (μM)) [%] | melting point [°C] | IC50 (5-LOX enzyme; lab report) [µM] | IC50 (ovine COX-1; read-out: IC50 COX-1) [µM] | DPPH test results (µM trolox equivalent/ 1mg sample ± SD) (DPPH free radical assay) | DPPH anti-oxidant activity (DPPH free radical assay) | TNF-α fold change [1]
CS(=O)(=O)n1cc(/C=N/N=C2/NCC(=O)S2)c2ccccc21 [Compound 5a] | 9.23 ± 0.49 | 7.21 | 17.4 | 50.3 | 79 | 0.59 | 0.592 |  | 13.6 | 32.4 | 59 | 85.6 |  |  | 3.95 ± 0.11 | 12.71 ± 1.16 µM trolox equivalent/ 1mg sample |  | 0.66
